According to patent publication US20260234147A1 (priority 2023, published 2026):
Read-outs that look alike come from different tables or passages of the source.

Experiments:
hKOR = hKOR (Homo sapiens, UniProt P41145); assay: Radioligand binding assay (Eurofins Cerep), [3H]U69,593 displacement
hDOR = hDOR (Homo sapiens, UniProt P41143); assay: Radioligand binding assay (Eurofins Cerep), [3H]DADLE displacement
hMOR = hMOR (Homo sapiens, UniProt P35372); assay: Radioligand binding assay (Eurofins Cerep), [3H]DAMGO displacement
Chain of hMOR (P35372 whole entry): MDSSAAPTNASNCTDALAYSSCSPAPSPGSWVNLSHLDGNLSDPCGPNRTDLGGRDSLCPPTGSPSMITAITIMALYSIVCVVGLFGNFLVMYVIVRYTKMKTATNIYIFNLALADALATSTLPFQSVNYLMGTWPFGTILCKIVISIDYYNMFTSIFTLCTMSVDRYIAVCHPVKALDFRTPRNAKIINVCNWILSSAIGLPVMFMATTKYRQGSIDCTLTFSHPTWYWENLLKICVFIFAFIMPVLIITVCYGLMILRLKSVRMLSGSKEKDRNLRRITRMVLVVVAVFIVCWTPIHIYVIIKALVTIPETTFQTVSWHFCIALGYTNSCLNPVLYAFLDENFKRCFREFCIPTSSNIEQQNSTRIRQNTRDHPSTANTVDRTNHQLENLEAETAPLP

α2A adrenergic receptor = molecular target: T1, α2A adrenergic receptor (Homo sapiens, UniProt P08913); assay: Radioligand binding assay (Eurofins Cerep), [3H]RX 821002 displacement
T1 construct: Eurofins Cerep (contract screening)
T1 sequence (P08913 1-465): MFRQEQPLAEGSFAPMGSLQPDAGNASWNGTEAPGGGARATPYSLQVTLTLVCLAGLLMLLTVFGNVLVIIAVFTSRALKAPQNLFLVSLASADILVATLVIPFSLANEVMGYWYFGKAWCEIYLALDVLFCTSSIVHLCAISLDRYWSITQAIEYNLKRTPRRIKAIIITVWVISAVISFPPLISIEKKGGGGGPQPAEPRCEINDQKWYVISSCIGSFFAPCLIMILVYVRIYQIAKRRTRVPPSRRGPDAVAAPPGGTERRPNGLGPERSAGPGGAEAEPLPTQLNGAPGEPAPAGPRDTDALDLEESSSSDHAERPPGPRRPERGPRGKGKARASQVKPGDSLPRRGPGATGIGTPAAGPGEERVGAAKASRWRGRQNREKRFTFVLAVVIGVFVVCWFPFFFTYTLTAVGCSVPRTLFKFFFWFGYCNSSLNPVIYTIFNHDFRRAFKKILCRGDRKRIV

[1] = Table B1′, read-out: KOR Ki ± SEM
[2] = Table B1′, read-out: DOR Ki ± SEM
[3] = Table B1′, read-out: MOR Ki ± SEM
[4] = alpha2A Ki ± SEM (nM), Table B1′
[5] = Table B1′, read-out: alpha2A Ki ± SEM
[6] = Table 3-2, 3 independent experiments, read-out: Ki (nM ± SEM) KOR
[7] = Table 3-2, 3 independent experiments, read-out: Ki (nM ± SEM) DOR
[8] = Table 3-2, 3 independent experiments, read-out: Ki (nM ± SEM) MOR
[9] = Ki (nM ± SEM) a2A-AR, Table 3-2, 3 independent experiments
[10] = Table 3-3, 3 independent experiments, read-out: Ki (nM ± SEM) KOR
[11] = Table 3-3, 3 independent experiments, read-out: Ki (nM ± SEM) MOR
[12] = Table 3-3, 3 independent experiments, read-out: Ki (nM ± SEM) DOR
[13] = Table 3-3, 3 independent experiments, read-out: Ki (nM ± SEM) a2A-AR

Chain of hDOR (P41143 whole entry): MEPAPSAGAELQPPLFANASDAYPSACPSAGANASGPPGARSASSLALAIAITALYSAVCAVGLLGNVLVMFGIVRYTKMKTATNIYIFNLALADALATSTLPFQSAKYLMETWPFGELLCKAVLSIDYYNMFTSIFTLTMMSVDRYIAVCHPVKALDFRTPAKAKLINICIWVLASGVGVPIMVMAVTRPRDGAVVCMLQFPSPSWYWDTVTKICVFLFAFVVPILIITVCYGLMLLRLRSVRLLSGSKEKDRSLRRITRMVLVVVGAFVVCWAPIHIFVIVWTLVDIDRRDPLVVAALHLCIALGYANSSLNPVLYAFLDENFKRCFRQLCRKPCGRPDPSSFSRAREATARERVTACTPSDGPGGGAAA
Chain of hKOR (P41145 whole entry): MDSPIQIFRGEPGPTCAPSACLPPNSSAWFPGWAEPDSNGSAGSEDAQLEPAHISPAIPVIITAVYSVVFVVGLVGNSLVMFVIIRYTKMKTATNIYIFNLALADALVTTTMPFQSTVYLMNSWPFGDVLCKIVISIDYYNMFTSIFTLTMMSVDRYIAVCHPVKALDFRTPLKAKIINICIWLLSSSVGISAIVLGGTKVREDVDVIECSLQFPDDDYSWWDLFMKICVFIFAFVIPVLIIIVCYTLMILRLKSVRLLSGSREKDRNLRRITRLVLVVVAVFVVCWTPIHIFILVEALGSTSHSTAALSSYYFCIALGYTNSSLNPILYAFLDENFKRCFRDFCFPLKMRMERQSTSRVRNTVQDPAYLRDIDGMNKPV

## COc1ccccc1C1(O)CCN2CCC(=O)CC2C1 (stereo not drawn)
hKOR; [1]
  Ki: > 10000 nM
hDOR; [2]
  Ki: > 10000 nM
hMOR; [3]
  Ki: > 10000 nM
α2A adrenergic receptor; [4]
  Ki: 5750 ± 1170 nM

## COC(=O)CC1CCN2CCC(c3ccccc3OC)=CC2C1 (stereo not drawn)
hKOR; [1]
  Ki: > 10000 nM
hDOR; [2]
  Ki: > 10000 nM
hMOR; [3]
  Ki: > 10000 nM
α2A adrenergic receptor; [4]
  Ki: 39 ± 3 nM

## COC(=O)CC1CCN2CC=C(c3ccccc3OC)CC2C1 (stereo not drawn)
hKOR; [1]
  Ki: > 10000 nM
hDOR; [2]
  Ki: > 10000 nM
hMOR; [3]
  Ki: > 10000 nM
α2A adrenergic receptor; [5]
  Ki: 15 nM

## COC(=O)CC1CCN2CCC(c3ccccc3)=CC2C1 (stereo not drawn)
hKOR; [1]
  Ki: 683 ± 142 nM
hDOR; [2]
  Ki: > 10000 nM
hMOR; [3]
  Ki: 7930 ± 1340 nM
α2A adrenergic receptor; [5]
  Ki: 5 ± 2 nM

## COC(=O)CC1CCN2CC=C(c3ccccc3)CC2C1 (stereo not drawn)
hKOR; [1]
  Ki: 957 ± 188 nM
hDOR; [2]
  Ki: > 10000 nM
hMOR; [3]
  Ki: 6980 ± 1450 nM
α2A adrenergic receptor; [5]
  Ki: 7 ± 2 nM

## COC(=O)C=C1CCN2CCC(O)(c3ccc(F)cc3)CC2C1 (stereo not drawn)
hKOR; [1]
  Ki: > 10000 nM
hDOR; [2]
  Ki: > 10000 nM
hMOR; [3]
  Ki: 672 ± 222 nM
α2A adrenergic receptor; [4]
  Ki: 311 ± 73 nM

## COC(=O)CC1CCN2CCC(O)(c3ccc(F)cc3)CC2C1 (stereo not drawn)
hKOR; [1]
  Ki: > 10000 nM
hDOR; [2]
  Ki: > 10000 nM
hMOR; [3]
  Ki: 424 ± 203 nM
α2A adrenergic receptor; [4]
  Ki: 240 ± 63 nM

## COC(=O)CC1CCN2CCC(O)(c3ccccc3OC)CC2C1 (single isomer, unassigned)
hKOR; [1]
  Ki: > 10000 nM
hDOR; [2]
  Ki: > 10000 nM
hMOR; [3]
  Ki: > 10000 nM
α2A adrenergic receptor; [4]
  Ki: 3470 ± 1790 nM

## COC=C(C(=O)OC)C1CCN(CCc2c[nH]c3ccc(OC)cc23)CC1 [Compound 3-37]
hKOR; [6]
  Ki: 1300 ± 129 nM
hDOR; [7]
  Ki: > 10000 nM
hMOR; Table 3-2
  SR: Selectivity Ratio (KiMOR/Kiα2A): 0.22
hMOR; [8]
  Ki: 733 ± 144 nM
α2A adrenergic receptor; [9]
  Ki: 3370 ± 586 nM

## COC(=O)CC1CCN(CCc2c[nH]c3ccc(OC)cc23)CC1 [Compound 3-38]
hKOR; [6]
  Ki: 8070 ± 810 nM
hDOR; [7]
  Ki: > 10000 nM
hMOR; [8]
  Ki: > 10000 nM
α2A adrenergic receptor; [9]
  Ki: 1590 ± 225 nM

## COC=C(C(=O)OC)C1CCN(CCc2c[nH]c3cc(OC)ccc23)CC1 [Compound 3-39]
hKOR; [6]
  Ki: 9450 ± 2970 nM
hDOR; [7]
  Ki: > 10000 nM
hMOR; [8]
  Ki: > 10000 nM
α2A adrenergic receptor; [9]
  Ki: > 10000 nM

## COC(=O)CC1CCN(CCc2c[nH]c3cc(OC)ccc23)CC1 [Compound 3-40]
hKOR; [6]
  Ki: > 10000 nM
hDOR; [7]
  Ki: > 10000 nM
hMOR; [8]
  Ki: > 10000 nM
α2A adrenergic receptor; [9]
  Ki: 2840 ± 599 nM

## COC=C(C(=O)OC)C1CCN(CCc2c[nH]c3c(OC)cccc23)CC1 [Compound 3-41]
hKOR; [6]
  Ki: > 10000 nM
hDOR; [7]
  Ki: > 10000 nM
hMOR; Table 3-2
  SR: Selectivity Ratio (KiMOR/Kiα2A): 1.04
hMOR; [8]
  Ki: 5130 ± 8.35 nM
α2A adrenergic receptor; [9]
  Ki: 4900 ± 829 nM

## COC(=O)CC1CCN(CCc2c[nH]c3ccccc23)CC1 [Compound 3-43]
hKOR; [10]
  Ki: > 10000 nM
hDOR; read-out: Ki (nM ± SEM) DOR, Table 3-3, 3 independent experiments
  Ki: > 10000 nM
hMOR; [11]
  Ki: 8910 ± 1800 nM
α2A adrenergic receptor; read-out: Ki (nM ± SEM) a2A-AR, Table 3-3, 3 independent experiments
  Ki: 1840 ± 201 nM

## COC(=O)CC1CCN(CCc2cn(CC(F)(F)F)c3ccccc23)CC1 [Compound 3-44]
hKOR; [10]
  Ki: > 10000 nM
hDOR; [12]
  Ki: > 10000 nM
hMOR; Table 3-3
  SR: Selectivity Ratio (KiMOR/Kiα2A): 0.76
hMOR; [11]
  Ki: 1480 ± 406 nM
α2A adrenergic receptor; [13]
  Ki: 1940 ± 410 nM

## COC(=O)CC1CCN(CCc2cn(CCc3c[nH]c4ccccc34)c3ccccc23)CC1 [Compound 3-45]
hKOR; [10]
  Ki: > 10000 nM
hDOR; [12]
  Ki: > 10000 nM
hMOR; Table 3-3
  SR: Selectivity Ratio (KiMOR/Kiα2A): 1.32
hMOR; [11]
  Ki: 9280 ± 1730 nM
α2A adrenergic receptor; [13]
  Ki: 7030 ± 2020 nM

## COC(=O)CC1CCN(CC(=O)N2CCc3c(OC)cccc32)CC1 [Compound 3-46]
hKOR; [10]
  Ki: > 10000 nM
hDOR; [12]
  Ki: > 10000 nM
hMOR; [11]
  Ki: > 10000 nM
α2A adrenergic receptor; [13]
  Ki: 6370 ± 1160 nM
